Reference: ChEMBL document CHEMBL1201862, “PubChem BioAssay data set” (2004)
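Tested at 5 concentrations; 48 h exposure; 96-well plates; endpoints linearly interpolated, else capped at highest concentration. GI50 marks 50% less growth.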 Active and inactive are the calls of the source. Cut-off read from the data, not from the text of the source: active = GI50 up to about 1.1 µM and inactive = higher.

Experiments:
Test in all cases: DTP human tumour cell line panel, 48 h
[1] = tested on: M14
[2] = tested on: NCI-H460
[3] = tested on: SK-MEL-5
[4] = tested on: UACC-257
[5] = tested on: UO-31
[6] = tested on: MOLT-4
[7] = tested on: T47D
[8] = tested on: DU-145
[9] = tested on: SK-MEL-28
[10] = tested on: SNB-75
[11] = tested on: SF-295
[12] = tested on: HOP-92
[13] = tested on: OVCAR-3
[14] = tested on: NCI-H522
[15] = tested on: A498
[16] = tested on: KM12
[17] = tested on: TK-10
[18] = tested on: HCC 2998
[19] = tested on: MDA-N
[20] = tested on: SK-MEL-2

Measured: GI50

Cc1nc2ccccc2c(=O)n1NC(=O)c1ccccc1[N+](=O)[O-]
inactive: [1] > 100 µM | [2] > 100 µM | [3] > 100 µM | [4] > 100 µM | [5] > 100 µM | [6] > 100 µM | [7] > 100 µM | [8] > 100 µM | [9] > 100 µM | [10] 81.5 µM | [11] > 100 µM | [12] > 100 µM | [13] > 100 µM | [14] > 100 µM | [15] > 100 µM | [16] > 100 µM | [17] > 100 µM | [18] > 100 µM

CC(C)(C)C1CC[C@H](O)[C@H]([C@@H](O)CC2CC(=O)N(c3ccccc3)C(=O)C2)C1 (some centres not stated)
inactive: [1] 43.8 µM | [2] 44.2 µM | [3] 45.2 µM | [4] 89.9 µM | [5] 76.4 µM | [6] 38.9 µM | [8] 55.3 µM | [9] > 100 µM | [10] > 100 µM | [11] > 100 µM | [12] 23.3 µM | [13] 50.9 µM | [14] > 100 µM | [15] > 100 µM | [19] > 100 µM | [16] 47.5 µM | [17] > 100 µM | [18] 27.9 µM

CC(C)(C)OC(=O)C1CC[C@@H](CC(=O)Oc2ccc([N+](=O)[O-])cc2)N1 (some centres not stated)
inactive: [1] > 100 µM | [2] > 100 µM | [3] > 100 µM | [4] > 100 µM | [5] > 100 µM | [6] > 100 µM | [8] > 100 µM | [20] > 100 µM | [9] > 100 µM | [10] > 100 µM | [11] > 100 µM | [12] > 100 µM | [13] > 100 µM | [14] > 100 µM | [15] > 100 µM | [19] > 100 µM | [16] > 100 µM | [17] > 100 µM | [18] > 100 µM

C[N+](C)(C)CC(=O)N/N=C/c1oc(-c2c(O)ccc3ccccc23)c(-c2c(O)ccc3ccccc23)c1[N+](=O)[O-]
inactive: [1] 17.3 µM | [2] 19.5 µM | [3] 8.87 µM | [4] 18.5 µM | [5] 7.36 µM | [6] 14.5 µM | [8] 15.4 µM | [20] 16.2 µM | [9] 21.3 µM | [10] 14.7 µM | [11] 17.1 µM | [12] 12.7 µM | [13] 16.3 µM | [14] 15.8 µM | [15] 16.9 µM | [16] 11.5 µM | [17] 26.3 µM | [18] 16 µM

CC(C)SC(NC(=O)C1C(C)(C)CCC1(C)C)C(=O)O (configuration not stated)
inactive: [1] > 100 µM | [2] > 100 µM | [3] > 100 µM | [5] > 100 µM | [6] > 10 µM | [8] > 100 µM | [20] > 100 µM | [9] > 100 µM | [10] > 100 µM | [12] > 100 µM | [15] > 100 µM | [19] > 100 µM | [17] > 100 µM | [18] > 100 µM
